Laboratory results reported in PubChem BioAssay (NCI).
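Cells were grown in 96-well plates and exposed to each compound for 48 hours at five concentrations; endpoints were interpolated linearly between bracketing concentrations, or set to the highest concentration if not reached. GI50 = concentration required for 50% inhibition of growth. TGI is the concentration that stops growth completely.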

Key:
Test in all cases: NCI tumour cell line growth inhibition, 48 h
[1] = system: 786-0 renal
[2] = system: A498 renal
[3] = system: A549 NSCLC
[4] = system: ACHN renal
[5] = system: BT-549 breast
[6] = system: CAKI-1 renal
[7] = system: CCRF-CEM leukemia
[8] = system: COLO 205 colon
[9] = system: DU-145 prostate
[10] = system: EKVX NSCLC
[11] = system: HCC-2998 colon
[12] = system: HCT-116 colon
[13] = system: HCT-15 colon
[14] = system: HL-60(TB) leukemia
[15] = system: HOP-62 NSCLC
[16] = system: HOP-92 NSCLC
[17] = system: HS 578T breast
[18] = system: HT29 colon
[19] = system: IGROV1 ovarian
[20] = system: K-562 leukemia
[21] = system: KM12 colon
[22] = system: LOX IMVI melanoma
[23] = system: M14 melanoma
[24] = system: MALME-3M melanoma
[25] = system: MCF7 breast
[26] = system: MDA-MB-231 breast
[27] = system: MDA-MB-435
[28] = system: MOLT-4 leukemia
[29] = system: NCI-H226 lung
[30] = system: NCI-H23 lung
[31] = system: NCI-H460 lung
[32] = system: NCI-H522 lung
[33] = system: NCI/ADR-RES ovarian
[34] = system: OVCAR-3 ovarian
[35] = system: OVCAR-4 ovarian
[36] = system: OVCAR-5 ovarian
[37] = system: OVCAR-8 ovarian
[38] = system: PC-3 prostate
[39] = system: RPMI-8226 leukemia
[40] = system: RXF 393 renal
[41] = system: SF-268 CNS
[42] = system: SF-295 CNS
[43] = system: SF-539 CNS
[44] = system: SK-MEL-2 melanoma
[45] = system: SK-MEL-28 melanoma
[46] = system: SK-MEL-5 melanoma
[47] = system: SK-OV-3 ovarian
[48] = system: SNB-19 CNS
[49] = system: SNB-75 CNS
[50] = system: SR leukemia
[51] = system: SW-620 colon
[52] = system: T-47D breast
[53] = system: TK-10 renal
[54] = system: U251 CNS
[55] = system: UACC-257 melanoma
[56] = system: UACC-62 melanoma
[57] = system: UO-31 renal

Compound `CCCc1cc(=O)n2c(C(=O)Nc3cccc(C(=O)OCC)c3)c(C(=O)Nc3ccc(F)cc3)sc2n1` has a GI50 [1] of 1430 nM, a TGI [1] of 5.25 µM and a GI50 [2] of 8.57 µM. For the same compound, the TGI [2] was 32.2 µM, the GI50 [3] was 4.32 µM and the TGI [3] was 24.1 µM. It also gave a GI50 [4] of 4.01 µM, a TGI [4] of 109 µM and a GI50 [5] of over 140 µM. For the same compound, the TGI [5] was over 140 µM, the GI50 [6] was 4.95 µM and the TGI [6] was 28.2 µM. The GI50 [7] was over 140 µM, the TGI [7] was over 140 µM and the GI50 [8] was 70.8 µM. The TGI [8] was over 140 µM, the GI50 [9] was 58.8 µM and the TGI [9] was over 140 µM. For the same compound, the GI50 [10] was over 140 µM, the TGI [10] was over 140 µM and the GI50 [11] was over 140 µM. The TGI [11] was over 140 µM, the GI50 [12] was 1060 nM and the TGI [12] was over 140 µM. The GI50 [13] was 125 µM, the TGI [13] was over 140 µM and the GI50 [14] was over 140 µM. For the same compound, the TGI [14] was over 140 µM, the GI50 [15] was 3.54 µM and the TGI [15] was 28.8 µM. For the same compound, the GI50 [16] was 1330 nM, the TGI [16] was 7.99 µM and the GI50 [17] was 1300 nM. It also gave a TGI [17] of 6.37 µM, a GI50 [18] of 87.9 µM and a TGI [18] of over 140 µM. For the same compound, the GI50 [19] was 24.8 µM, the TGI [19] was 65.9 µM and the GI50 [20] was 60.3 µM. The TGI [20] was over 140 µM, the GI50 [21] was 42.5 µM and the TGI [21] was over 140 µM. The GI50 [22] was 6.65 µM, the TGI [22] was over 140 µM and the GI50 [23] was 9.6 µM. It also gave a TGI [23] of 86 µM, a GI50 [24] of 13.1 µM and a TGI [24] of 58 µM. For the same compound, the GI50 [25] was over 140 µM, the TGI [25] was over 140 µM and the GI50 [26] was 1600 nM. The TGI [26] was 7.2 µM, the GI50 [27] was over 140 µM and the TGI [27] was over 140 µM. For the same compound, the GI50 [28] was over 140 µM, the TGI [28] was over 140 µM and the GI50 [29] was 5.83 µM. The TGI [29] was 27.7 µM, the GI50 [30] was 66.3 µM and the TGI [30] was over 140 µM. The GI50 [31] was 13.3 µM, the TGI [31] was over 140 µM and the GI50 [32] was 65 µM. For the same compound, the TGI [32] was over 140 µM, the GI50 [33] was 22.3 µM and the TGI [33] was over 140 µM. It also gave a GI50 [34] of 3.17 µM, a TGI [34] of 7.75 µM and a GI50 [35] of 3.27 µM. For the same compound, the TGI [35] was 20.9 µM, the GI50 [36] was 136 µM and the TGI [36] was over 140 µM. It also gave a GI50 [37] of 3.63 µM, a TGI [37] of 15 µM and a GI50 [38] of 45.9 µM. For the same compound, the TGI [38] was over 140 µM, the GI50 [39] was 6.2 µM and the TGI [39] was over 140 µM. For the same compound, the GI50 [40] was 5.3 µM, the TGI [40] was 13.4 µM and the GI50 [41] was 26.6 µM. The TGI [41] was 128 µM, the GI50 [42] was 44.6 µM and the TGI [42] was over 140 µM. It also gave a GI50 [43] of 23.8 µM, a TGI [43] of over 140 µM and a GI50 [44] of 6.83 µM. The TGI [44] was 27.6 µM, the GI50 [45] was 133 µM and the TGI [45] was over 140 µM. The GI50 [46] was 75.1 µM, the TGI [46] was over 140 µM and the GI50 [47] was 23.9 µM. It also gave a TGI [47] of 75 µM, a GI50 [48] of 25.5 µM and a TGI [48] of 132 µM. It also gave a GI50 [49] of 3.54 µM, a TGI [49] of 17.5 µM and a GI50 [50] of 51.7 µM. The TGI [50] was over 140 µM, the GI50 [51] was 12 µM and the TGI [51] was over 140 µM. For the same compound, the GI50 [52] was 13.5 µM, the TGI [52] was over 140 µM and the GI50 [53] was 5.72 µM. For the same compound, the TGI [53] was 22.1 µM, the GI50 [54] was 3.55 µM and the TGI [54] was 48.6 µM. For the same compound, the GI50 [55] was 54.1 µM, the TGI [55] was over 140 µM and the GI50 [56] was 48.4 µM. For the same compound, the TGI [56] was over 140 µM, the GI50 [57] was 7.27 µM and the TGI [57] was 42.6 µM.
